Read-outs that look alike come from different tables or passages of the source.
Legend:
Class A ESBL SHV-5 = target: T1, Class A ESBL SHV-5 (Klebsiella pneumoniae, UniProt P0A3M1); type: biochemical, E. coli; settings: nitrocefin 100 μM, PBS pH 7.0, read-out: SHV-5 IC50 Range
T1 construct: made in house; host or cells: E. coli BL21(DE3) for purified enzyme; E. coli cells containing SHV-5 for extracts
Description: (§1) Isolation of β-lactamases. For all examples, purified beta-lactamase enzymes were used to measure a compounds' ability to inhibit the Class A ESBL CTXM-15, the Class C P99 AmpC and the Class A carbapenemase KPC-2. […] The enzyme preparations are described herein.
For the preparation of SHV-5 extracts, E. coli cells containing SHV-5 were cultured overnight with shaking at a volume of 20 mL. They were further diluted 10-fold and grown to mid-log phase (OD at 600 nm, 0.5-0.8) in Mueller-Hinton II (MH-II) broth at 37° C. The cells were pelleted at 5000 g, washed and resuspended in 2 mL PBS pH 7.0. The β-lactamase was extracted by four cycles of freezing and thawing followed by centrifugation. β-lactamase activity in the extract was measured with the chromogenic cephalosporin nitrocefin. The amount of protein in each β-lactamase preparation was determined by the bicinchoninic acid (BCA) assay.
(§2) For the isolation and purification of SHV-5, p99 AmpC, KPC-2 and CTX-M15 β-lactamases, E. coli BL21(DE3) bacterial cells carrying expression plasmids (expressed as native untagged proteins) for the individual β-lactamases were grown in 1 L of Superbroth (Teknova Inc. Hollister, Calif.) supplemented with 100 μg/ml kanamycin and 1×5052 (0.5% glycerol, 0.05% glucose and 0.2% α-lactose) at 35° C. for 18-20 hours. Cells were harvested by centrifugation (4,000×g, 4° C., 20 min), and resuspended in 50 ml of 10 mM HEPES pH 7.5 ( 1/20 of the initial volume). The cells were lysed by sonication (5 pulses of 45 seconds) at 45 W on ice. The lysates were clarified by centrifugation at 10,000×g for 40 minutes at 4° C. Samples were diluted 5-fold in 50 mM sodium acetate pH 5.0, stored overnight at 4° C., after which they were centrifuged at 10,000×g for 30 minutes to clarify, and filtered through 0.45 μm filters. The samples were loaded onto a 5 ml Capto S sepharose cation exchange column (GE Healthcare) pre-equilibrated with 50 mM sodium acetate pH 5.0. The column was washed with 5 column volumes of 50 mM sodium acetate pH 5.0 to wash out unbound protein and a linear gradient of NaCl (0 to 500 mM) was used to elute the protein (over 16 CV) from the column. Fractions were assayed for β-lactamase activity using Centa (Calbiochem, Gibbstown, N.J.) as a reporter β-lactamase substrate for activity in the isolated fractions. Active fractions were pooled, concentrated and further purified by gel filtration chromatography on a Superdex 75 prep grade gel filtration column (GE Healthcare, Piscataway, N.J.) pre-equilibrated in 50 mM Hepes pH 7.5, 150 mM NaCl. Active fractions were pooled concentrated, quantitated by BCA protein determination (Thermo Scientific, Rockford, Ill.), and frozen at −80° C. in 20% glycerol until use.
(§3) β-lactamase Inhibition. To determine the level of inhibition of β-lactamaseenzymes, compounds were diluted in PBS at pH 7.0 to yield concentrations between 100 and 0.005 μM in microtiter plates. An equal volume of diluted enzyme stock was added, and the plates were incubated at 37° C. for 10 min. Nitrocefin solution was then dispensed as substrate into each well at a final concentration of 100 μM, and the plates were immediately read with the kinetic program at 486 nm for 10 min on the SPECTRAMAX® Plus^384 (high-throughput microplate spectrophotometer; Molecular Devices Corp., Sunnyvale, Calif.). Maximum rates of metabolism were then compared to those in control wells (without inhibitors), and percentages of enzyme inhibition were calculated for each concentration of inhibitor. The concentration of inhibitor needed to reduce the initial rate of hydrolysis of substrate by 50% (IC50) was calculated as the residual activity of β-lactamase at 486 nm using the SoftMax Pro 5.0 software (Molecular Devices Corp.).

Class A ESBL CTXM-15 = target: T2, Class A ESBL CTXM-15 (Escherichia coli, UniProt Q9EXV5); assay: β-lactamase enzyme inhibition (nitrocefin hydrolysis), CTXM-15; type: biochemical; settings: purified enzyme; nitrocefin 100 μM, PBS pH 7.0; read-out: CTXM-15 IC50 Range
T2 construct: made in house; host or cells: E. coli BL21(DE3)
Description: as §1, §2, §3

Class C P99 AmpC = target: T3, Class C P99 AmpC (Enterobacter cloacae, UniProt P05364); type: biochemical; settings: purified enzyme; nitrocefin 100 μM, PBS pH 7.0; read-out: P99 AmpC IC50 Range
T3 construct: made in house; host or cells: E. coli BL21(DE3)
Description: as §1, §2, §3

[1] = test system: K. pneumoniae expressing the Class A ESBL CTX-M-15; assay: microbe, parasite or virus in culture; type: cell-based; settings: in the presence of fixed 8 μg/mL Ceftazidime
Description: To determine the ability of test compounds to potentiate the inhibition of the growth of bacterial strains producing beta-lactamase enzymes, classic cell based screening assays were employed. Four bacteria strains producing beta-lactamase enzymes were used: K. pneumoniae expressing the Class A Extended Spectrum Beta-Lactamase (ESBL) CTX-M-15, E. coli expressing the Class A ESBL SHV-5, E. cloacae expressing the Class C P99+, and K. pneumoniae expressing the Class A carbapenemase KPC-2. In order to evaluate the ability of test compounds to inhibit beta-lactamase activity, Applicants used a modification of the broth microdilution assay. The assay was conducted in Cation Adjusted Mueller Hinton Broth (CAMHB, BD # 212322, BD Diagnostic Systems, Sparks, Md.). Bacteria strains were grown for 3-5 hours in CAMBH broth. All four strains were grown in presence of 50 μg/mL ampicillin to ensure resistance is maintained. In the meantime, test compounds were diluted in DMSO to a 0.1 mg/mL stock. The compounds were added to a microtiter plate and were diluted in 2-fold serial dilutions in CAMHB in a final concentration range of 8 μg/mL to 0.015 μg/ml. […] […] Each of these compound plates are made in quadruplicate, one for each bacteria strain. In addition to the titration of test compounds the MICs of a panel of cephalosporins is also tested to ensure the strains are behaving consistently from test to test. Once the test compound and cephalosporin are added the plates can be inoculated. Inocula are conducted according to CLSI broth microdilution method. After inoculation the plates are incubated for 16-20 hours at 37° C. then the Minimal Inhibitory Concentration (MIC) of the test compound is determined visually.

[2] = test system: K. pneumoniae expressing the Class A carbapenemase KPC-2; assay: microbe, parasite or virus in culture; settings: in the presence of fixed 8 μg/mL Ceftazidime
Description: To determine the ability of test compounds to potentiate the inhibition of the growth of bacterial strains producing beta-lactamase enzymes, classic cell based screening assays were employed. Four bacteria strains producing beta-lactamase enzymes were used: K. pneumoniae expressing the Class A Extended Spectrum Beta-Lactamase (ESBL) CTX-M-15, E. coli expressing the Class A ESBL SHV-5, E. cloacae expressing the Class C P99+, and K. pneumoniae expressing the Class A carbapenemase KPC-2. In order to evaluate the ability of test compounds to inhibit beta-lactamase activity, Applicants used a modification of the broth microdilution assay. The assay was conducted in Cation Adjusted Mueller Hinton Broth (CAMHB, BD # 212322, BD Diagnostic Systems, Sparks, Md.). Bacteria strains were grown for 3-5 hours in CAMBH broth. All four strains were grown in presence of 50 μg/mL ampicillin to ensure resistance is maintained. In the meantime, test compounds were diluted in DMSO to a 0.1 mg/mL stock. The compounds were added to a microtiter plate and were diluted in 2-fold serial dilutions in CAMHB in a final concentration range of 8 μg/mL to 0.015 μg/ml. An overlay of CAMHB containing a cephalosporin was added to the compounds at a final static concentration of 8 μg/ml. […] Each of these compound plates are made in quadruplicate, one for each bacteria strain. In addition to the titration of test compounds the MICs of a panel of cephalosporins is also tested to ensure the strains are behaving consistently from test to test. Once the test compound and cephalosporin are added the plates can be inoculated. Inocula are conducted according to CLSI broth microdilution method. After inoculation the plates are incubated for 16-20 hours at 37° C. then the Minimal Inhibitory Concentration (MIC) of the test compound is determined visually.

[3] = target: T4, Class A carbapenemase KPC-2 (Klebsiella pneumoniae, UniProt Q9F663); assay: β-lactamase enzyme inhibition (nitrocefin hydrolysis), KPC-2; type: biochemical; settings: purified enzyme; nitrocefin 100 μM, PBS pH 7.0; read-out: KPC-2 IC50 Range
T4 construct: made in house; host or cells: E. coli BL21(DE3)
Description: as §1, §2, §3

[4] = cellular extracts of E. coli containing SHV-5 (Examples 2-30)
[5] = purified beta-lactamase enzyme (Examples 1 and 31-64)

T1 sequence (P0A3M1 22-286): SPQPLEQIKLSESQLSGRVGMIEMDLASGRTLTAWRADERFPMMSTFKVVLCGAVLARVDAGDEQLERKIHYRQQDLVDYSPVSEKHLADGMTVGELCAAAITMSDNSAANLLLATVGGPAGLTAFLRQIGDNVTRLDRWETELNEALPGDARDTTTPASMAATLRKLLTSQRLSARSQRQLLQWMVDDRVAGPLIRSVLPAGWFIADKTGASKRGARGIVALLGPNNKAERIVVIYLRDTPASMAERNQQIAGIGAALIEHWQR
T4 sequence (Q9F663 25-293 limits assumed): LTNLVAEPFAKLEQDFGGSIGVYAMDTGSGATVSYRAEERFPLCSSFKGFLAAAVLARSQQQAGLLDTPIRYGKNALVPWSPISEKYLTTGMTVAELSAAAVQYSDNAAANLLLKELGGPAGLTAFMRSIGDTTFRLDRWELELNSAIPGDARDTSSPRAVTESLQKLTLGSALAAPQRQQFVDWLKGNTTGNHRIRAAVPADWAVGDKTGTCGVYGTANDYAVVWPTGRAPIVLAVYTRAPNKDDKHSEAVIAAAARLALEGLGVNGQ
T3 sequence (P05364 21-381): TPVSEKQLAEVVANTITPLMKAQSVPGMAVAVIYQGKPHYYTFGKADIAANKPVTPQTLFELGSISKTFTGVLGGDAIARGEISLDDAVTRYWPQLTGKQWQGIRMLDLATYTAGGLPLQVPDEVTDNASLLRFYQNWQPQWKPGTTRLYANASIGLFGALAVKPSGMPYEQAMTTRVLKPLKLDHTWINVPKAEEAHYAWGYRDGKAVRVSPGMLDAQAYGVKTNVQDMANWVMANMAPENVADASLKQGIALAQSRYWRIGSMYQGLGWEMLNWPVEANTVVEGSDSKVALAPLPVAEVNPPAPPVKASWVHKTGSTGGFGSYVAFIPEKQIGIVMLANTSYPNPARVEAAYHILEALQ
T2 sequence (Q9EXV5 entry or part of it): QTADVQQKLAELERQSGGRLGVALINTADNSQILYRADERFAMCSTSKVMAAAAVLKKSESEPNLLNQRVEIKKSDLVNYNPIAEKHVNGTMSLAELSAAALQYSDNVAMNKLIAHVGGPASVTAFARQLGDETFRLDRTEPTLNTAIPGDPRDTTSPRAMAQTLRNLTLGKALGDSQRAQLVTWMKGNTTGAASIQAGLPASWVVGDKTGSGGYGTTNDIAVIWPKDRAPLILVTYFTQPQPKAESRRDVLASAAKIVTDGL

Compound	IC50 (Class A ESBL SHV-5; [4])	IC50 (Class A ESBL CTXM-15)	IC50 (Class C P99 AmpC)	MIC of example compound, K. pneumoniae CTX-M-15 + 8 μg/mL CAZ [1]	MIC of example compound, K. pneumoniae KPC-2 + 8 μg/mL CAZ [2]	IC50 [3]	IC50 (Class A ESBL SHV-5; [5])
O=C(Cc1cccc(O)c1)N[C@@H](Cc1cccc(C(=O)O)c1O)B(O)O [Example 3, (1R)-1-(3-hydroxy-phenyl)acetylamino-1-(3-carboxy-2-hydroxy)benzyl-methyl boronic acid]	< 10 nM	< 10 nM	< 10 nM	C (C represents an MIC of <1 μg/mL)	C (C represents an MIC of <1 μg/mL)		
O=C(O)c1cccc(C[C@H](NC(=O)c2cccc3ccccc23)B(O)O)c1O [Example 27, (1R)-1-(1-naphthoylamino)-2-(2-hydroxy-3-carboxyphenyl)ethyl-1-boronic acid]	10 to 100 nM	< 10 nM	< 10 nM		C (C represents an MIC of <1 μg/mL)	< 10 nM	
Cc1ccccc1C(=O)N[C@@H](Cc1cccc(C(=O)O)c1O)B(O)O [Example 30, (1R)-1-(2-methylbenzoylamino)-2-(2-hydroxy-3-carboxyphenyl)ethyl-1-boronic acid]	10 to 100 nM	< 10 nM	< 10 nM		C (C represents an MIC of <1 μg/mL)	< 10 nM	
O=C(N[C@@H](Cc1cccc(C(=O)O)c1O)B(O)O)c1ccc(Cl)cc1 [Example 32, (1R)-1-(4-Chloro-benzoyl)-amino-1-(3-carboxy-2-hydroxy)benzyl-methylboronic acid]		< 10 nM	< 10 nM		C (C represents an MIC of <1 μg/mL)	< 10 nM	10 to 100 nM
COc1ccc(C(=O)N[C@@H](Cc2cccc(C(=O)O)c2O)B(O)O)cc1 [Example 33, (1R)-1-(4-Methoxybenzoyl)-amino-1-(3-carboxy-2-hydroxy)benzyl-methylboronic acid]		< 10 nM	< 10 nM		C (C represents an MIC of <1 μg/mL)	< 10 nM	100 to 1000 nM
O=C(N[C@@H](Cc1cccc(C(=O)O)c1O)B(O)O)c1ccccc1O [Example 35, (1R)-1-(2-hydroxybenzoylamino)-2-(2-hydroxy-3-carboxyphenyl)ethyl-1-boronic acid]		< 10 nM	< 10 nM		C (C represents an MIC of <1 μg/mL)	10 to 100 nM	10 to 100 nM
O=C(CN1C(=O)c2ccccc2C1=O)N[C@@H](Cc1cccc(C(=O)O)c1O)B(O)O [Example 45, (1R)-1-(2-(1,3-dioxoisoindolin-2-yl)acetylamino)-2-(2-hydroxy-3-carboxyphenyl)ethyl-1-boronic acid]		< 10 nM	< 10 nM		C (C represents an MIC of <1 μg/mL)	< 10 nM	< 10 nM
O=C(N[C@@H](Cc1cccc(C(=O)O)c1O)B(O)O)c1ccncc1 [Example 55, (1R)-1-(Pyridine-4-carbonyl-amino)-2-(2-hydroxy-3-carboxyphenyl)ethyl-1-boronic acid]		< 10 nM	< 10 nM			< 10 nM	10 to 100 nM
O=C(N[C@@H](Cc1cccc(C(=O)O)c1O)B(O)O)c1cccc(-n2ccnc2)c1 [Example 57, (1R)-1-(3-Imidazol-1-yl-benzoylaminoamino)-2-(2-hydroxy-3-carboxyphenyl)ethyl-1-boronic acid]		< 10 nM	< 10 nM		C (C represents an MIC of <1 μg/mL)	< 10 nM	< 10 nM
O=C(N[C@@H](Cc1cccc(C(=O)O)c1O)B(O)O)c1cnccn1 [Example 58, (1R)-1-(Pyrazine-2-carbonyl-amino)-2-(2-hydroxy-3-carboxyphenyl)ethyl-1-boronic acid]		< 10 nM	10 to 100 nM		C (C represents an MIC of <1 μg/mL)	< 10 nM	10 to 100 nM
CC(=O)Nc1nc(CC(=O)N[C@@H](Cc2cccc(C(=O)O)c2O)B(O)O)cs1 [Example 63, (1R)-1-((2-Acetylamino-thiazol-4-yl)-acetylamino)-2-(2-hydroxy-3-carboxyphenyl)ethyl-1-boronic acid]		< 10 nM	< 10 nM		C (C represents an MIC of <1 μg/mL)	< 10 nM	< 10 nM
